The source of these data is patent US8507523B2, “Therapeutic tetrahydroisoquinoline-based compositions for cancer therapy” (priority 2006, dated 2013).

The subject of test [1] is normal primary cultures of rat brain astrocytes. Kind of test: Dose response (percent survival) in primary cultures of astrocytes. It is filed as cell-based. To be noted: 4 days of treatment; for EC50: Rattus norvegicus, Astrocyte, 96 h. An excerpt:
(§1) 6,7-Dimethoxy-1-[4-(4-methoxypyridin-3-yl)benzyl]-1,2,3,4-tetrahydroisoquinolinehydrochloride (EDL-291) was synthesized as described herein in the laboratory of Dr. Duane D. Miller at The University of Tennessee Health Science Center. Briefly, the primary cultures of astrocytes and cultures of C6 glioma cell lines were handled identically with respect to treatment concentrations and manipulations of cells for the screening assays. The cells were trypsinized and transferred to 96-well plates at a cell density of 10^3 cells/mm^2 in the wells. The cells were grown overnight in 100 μL of 10% FCS BME in a 37° C. incubator containing a humid, 5% CO2 atmosphere.
(§2) EDL291 was dissolved completely to make a […] stock solution and diluted to produce a series of concentrations. A 20 μL aliquot of these initial solutions was added to 180 μl of 2% FCS BME to produce the test concentration. The vehicle solution was tested as a control. […] Immediately before treatment, the 10% FCS BME was removed from the cells and replaced with the 180 μl of the treatment medium. The cultured cells (normal primary cultures of rat brain astrocytes or C6 glioma purchased from ATCC) were incubated with test compound for 4 days. The cells were fixed with 4% paraformaldehyde, stained with 0.1% Cresylecth violet stain, and quantitated. The screening data was collected as four wells for each dose per compound (screening) or concentration (dose response curve). Also, the average growth of 8 wells with no treatment was used as a negative control for each plate (100% growth). The cells for dose response curves were grown in the same media and were handled in a similar manner as in the screening assays.
(§3) The cytotoxic character of each compound was reported as the percent survival, calculated as the average A560 for treated cells divided by A560 of untreated (100% control) cells, and expressed as a percentage. Values less than 100% indicate a cytostatic or cytotoxic effect. Dose response curves and EC50 values were attained via plots of percent survival vs. concentration.

Another test has as its system C6 glioma. The test is described as follows: Dose response (percent survival) in C6 glioma cell cultures. In kind it is cell-based, rat. Particulars: Rattus norvegicus, C6 glioma, 96 h, C6 glioma cells, 4 days of treatment, percent survival.
Excerpt: as §1, §2, §3

Structures can show the parent of a compound that is named as a salt.

As a reminder, the EC50 is the concentration needed to bring the measured effect to its halfway point. For `COc1cc2c(cc1OC)C(Cc1ccc(-c3ccccc3NC(C)=O)cc1)N(C(=O)OC(C)(C)C)CC2` (stereo not drawn) [Compound 17, 1-(2′-Acetylaminobiphenyl-4-ylmethyl)-6,7-dimethoxy-3,4-dihydro-1H-isoquinoline-2-carboxylic acid tert-butyl ester], in test [1], the “EC50 μM Astrocyte” value is listed as “No Effect”. Besides, in the test on C6 glioma, it took 9.2 µM to reach a half-maximal effect (EC50).
As for `COc1cc2c(cc1OC)C(Cc1ccc(-c3cnccc3OC)cc1)N(C(=O)OC(C)(C)C)CC2` (stereo not drawn) [Compound 20, 6,7-Dimethoxy-1-[4-(4-methoxypyridin-3-yl)benzyl]-3,4-dihydro-1H-isoquinoline-2-carboxylic acid tert-butyl ester], the EC50 amounted to 12.2 µM in test [1] and 5.9 µM in the test on C6 glioma.
For `Clc1ccncc1-c1ccc(CC2NCCc3cc4c(cc32)OCO4)cc1` (stereo not drawn) [Compound 42, 5-[4-(4-Chloropyridin-3-yl)benzyl]-5,6,7,8-tetrahydro-[1,3]dioxolo[4,5-g]isoquinoline dihydrochloride salt], in that order: 81.5 µM and 2.5 µM.
Regarding `COc1cc2c(cc1OC)C(Cc1ccc(-c3cncnc3)cc1)NCC2.Cl` (stereo not drawn) [Compound 29, 6,7-Dimethoxy-1-(4-pyrimidin-5-ylbenzyl)-1,2,3,4-tetrahydroisoquinoline hydrochloride], in test [1], the “EC50 μM Astrocyte” value is on record as “No Effect”. Moreover, the EC50 in the test on C6 glioma amounted to 39.4 µM.
In the case of `COc1ccncc1-c1ccc(CC2NCCc3cc4c(cc32)OCO4)cc1` (stereo not drawn) [Compound 45, 5-[4-(4-methoxypyridin-3-yl)benzyl]-5,6,7,8-tetrahydro-[1,3]dioxolo[4,5-g]isoquinoline dihydrochloride salt], the EC50 was 8.3 µM in test [1] and 1.3 µM with C6 glioma.
Take `COc1cc2c(cc1OC)C(Cc1ccc(-c3ccccc3NS(C)(=O)=O)cc1)NCC2` (stereo not drawn) [Compound 15, N-[4′-(6,7-Dimethoxy-1,2,3,4-tetrahydroisoquinolin-1-ylmethyl)-biphenyl-2-yl]-methanesulfonamide hydrochloride salt]: the values for the EC50 (in test [1]; with C6 glioma) were 50 to 100 µM and 8.9 µM, respectively.
For the compound `COc1cc2c(cc1OC)C(Cc1ccc(-c3ccncc3OC)cc1)NCC2` (stereo not drawn) [Compound 12, 6,7-Dimethoxy-1-[4-(3-methoxypyridin-4-yl)benzyl]-1,2,3,4-tetrahydroisoquinoline hydrochloride salt], the EC50 stood at 49.5 µM in test [1] and 6.9 µM in the test with C6 glioma.
Consider `COc1ccncc1-c1ccc(CC2c3cc4c(cc3CCN2C(=O)OC(C)(C)C)OCO4)cc1` (stereo not drawn) [Compound 43, 5-[4-(4-methoxypyridin-3-yl)benzyl]-7,8-dihydro-5H-[1,3]dioxolo[4,5-g]isoquinoline-6-carboxylic acid tert-butyl ester], for which the EC50 in test [1] came to 12.4 µM; in the test with C6 glioma it was 5.8 µM.
In the case of `COc1ncc(-c2ccc(CC3NCCc4cc(OC)c(OC)cc43)cc2)c(OC)n1` (stereo not drawn) [Compound 26, 1-[4-(2,4-Dimethoxypyrimidin-5-yl)benzyl]-6,7-dimethoxy-1,2,3,4-tetrahydroisoquinoline hydrochloride], the EC50 in test [1] is 34 µM; with C6 glioma, 9.3 µM.
For the compound `COc1cc2c(cc1OC)C(Cc1ccc(-c3ccncc3)cc1)NCC2` (stereo not drawn) [Compound 4, 6,7-Dimethoxy-1-(4-pyridin-4-ylbenzyl)-1,2,3,4-tetrahydroisoquinoline hydrochloride salt], the EC50 was 74.4 µM in test [1] and 17.7 µM with C6 glioma.
For `COc1cc2c(cc1OC)C(Cc1ccc(-c3cccnc3Cl)cc1)NCC2` (stereo not drawn) [Compound 32, 1-[4-(2-Chloro-pyridin-3-yl)benzyl]-6,7-dimethoxy-1,2,3,4-tetrahydroisoquinoline hydrochloride], in that order: 28.2 µM and 2.7 µM.
Take `COc1cc2c(cc1OC)C(Cc1ccc(-c3cccnc3OC)cc1)N(C(=O)OC(C)(C)C)CC2` (stereo not drawn) [Compound 6, 6,7-Dimethoxy-1-[4-(2-methoxypyridin-3-yl)benzyl]-3,4-dihydro-1H-isoquinoline-2-carboxylic acid tert-butyl ester]: the “EC50 μM Astrocyte” value in test [1] is listed as “No Effect”. This compound also registered an EC50 in the test on C6 glioma of 4.3 µM.
